In ChEMBL document CHEMBL1141329, “Cyclic peptides from an endophytic fungus obtained from a mangrove leaf (Kandelia candel)” (J Nat Prod, 2007):
Values after ≈ are worked out from the molar mass of the structure shown.

Tested on: MCF7
Test: Antitumor activity against human MCF7 cells by MTT assay
Format: functional, cell-based

IC50: 100 µg/mL (≈ 166 µM)
SMILES: CC(C)C[C@@H]1OC(=O)CNC(=O)[C@H](C(C)C)NC(=O)[C@H](Cc2ccc(O)cc2)NC(=O)CNC(=O)[C@@H](CC(C)C)NC1=O
